Values after ≈ are worked out from the molar mass of the structure shown. “Also recorded” adds a separate entry of the source. Read-outs that look alike come from different tables or passages of the source.
Columns and labels:
[1] = system: non-replicating M. tuberculosis; assay: microbe, parasite or virus in culture; type: cell-based, Mycobacterium tuberculosis; settings: for MIC: Mycobacterium tuberculosis
[2] = system: replicating M. tuberculosis; assay: MIC under replication (R) conditions; type: cell-based, Mycobacterium tuberculosis; settings: for MIC: Mycobacterium tuberculosis
HepG2 cells = type: cell-based; settings: human, 2 day
Description: Three lead compounds were identified in the first round of high throughput screening (700 compounds), which had minimal inhibitory concentrations (MIC) of 0.4-0.8 μg/mL after a six day exposure to drug (NRd6) in the model of non-replication at pH 5.0, and LD50's of 100 to >100 μg/mL against HepG2 cells (a 2 day exposure).
Furthermore, LD50 values were determined using a human hepatoma cell line (HepG2) using intracellular ATP levels as a measurement that correlated with cellular viability.

Escherichia coli = assay: Antibiotic spectrum: Escherichia coli; type: cell-based; settings: Gram negative, replicating conditions, n=1 experiment; for MIC: Escherichia coli, read-out: MIC against Escherichia coli
Streptococcus = assay: Antibiotic spectrum: Streptococcus; type: cell-based; settings: Gram positive, replicating conditions, n=1 experiment; for MIC: Streptococcus, read-out: MIC against Streptococcus
Pseudomonas aeruginosa = assay: Antibiotic spectrum: Pseudomonas aeruginosa; type: cell-based; settings: Gram negative, replicating conditions, n=1 experiment; for MIC: Pseudomonas aeruginosa, read-out: MIC against Pseudomonas aeruginosa
Staphylococcus aureus = assay: Antibiotic spectrum: Staphylococcus aureus; type: cell-based; settings: Gram positive, replicating conditions, n=1 experiment; for MIC: Staphylococcus aureus, read-out: MIC against Staphylococcus aureus
Candida albicans = assay: Activity against fungus Candida albicans; type: cell-based; settings: pH 5.0
Description: In addition, activity was tested against the fungus Candida albicans at pH 5.0.

[3] = system: non-replicating wild-type Mycobacterium tuberculosis (Mtb); assay: CFU-based cidal assay, non-replicating wild-type Mtb (FIG. 1); type: cell-based
[4] = system: wild-type Mtb infecting murine bone marrow-derived macrophages; assay: Killing of Mtb infecting bone marrow-derived macrophages (FIG. 2); type: cell-based, Mycobacterium tuberculosis; settings: 100 μg/mL
[5] = system: murine bone marrow-derived macrophages; assay: Toxicity to macrophages by visual inspection; settings: 100 μg/mL; visual inspection at 400× magnification
[6] = 72 h, Table 9, 3 Day Exposure to Drug, read-out: MIC NR 0.01 Inoc.
[7] = 72 h, Table 9, 3 Day Exposure to Drug, read-out: MIC NR 0.1 Inoc.
[8] = 72 h, pH 5, Table 2, library samples (purity approximately 75%), read-out: MIC NR pH 5.0, day 3 exposure
[9] = 144 h, pH 5, Table 2, library samples (purity approximately 75%), read-out: MIC NR pH 5.0, day 6 exposure
[10] = pH 5, read-out: MIC NR pH 5, D3 exposure
[11] = pH 5, read-out: MIC NR pH 5, D6 exposure
[12] = read-out: MIC NR at 0.01 Inoc. and 3 Day Exposure to Drug, 7 Day Outgrowth, Table 8, ranges from multiple assays
[13] = read-out: MIC NR at 0.01 Inoc. and 3 Day Exposure to Drug, 11 Day Outgrowth, Table 8, ranges from multiple assays

With `CC1=C(C(=O)O)N2C(=O)[C@@H](NC(=O)COc3ccccc3)[C@H]2SC1` [Compound 109] the MIC [1, 6] was 100 µg/mL (≈ 287 µM), the MIC [1, 7] was greater than 100 µg/mL and the MIC ([2]; Table 9, read-out: MIC R) was greater than 100 µg/mL. The “HepG2 LD50” value (HepG2 cells) was greater than 100 µg/mL.

With `CCCOC(=O)C1=C(C)CS[C@@H]2[C@H](NC(=O)OCc3ccccc3)C(=O)N12` [Compound 13] the MIC [1, 8] was 6.3 µg/mL (≈ 16.1 µM), the MIC [1, 9] was less than 0.39 µg/mL and the MIC [1, 10] was 1.6 µg/mL (≈ 4.1 µM). It also gave an MIC [1, 11] of 0.8 µg/mL (≈ 2.05 µM), an MIC [1, 12] of 0.2 to 0.39 µg/mL (≈ 0.512 to 0.999 µM) and an MIC [1, 13] of 0.39 to 0.78 µg/mL (≈ 0.999 to 2 µM). For the same compound, the MIC ([2]; pH 6.6, Table 3, resynthesized to >95% purity, read-out: MIC pH 6.6, R cells) was greater than 100 µg/mL, the “MIC against replicating Mtb in presence or absence of clavulanic acid” value ([2]; with vs without clavulanic acid) was “identical” and the “HepG2 Toxicity LD50” value (HepG2 cells) was 100 µg/mL. The HepG2 toxicity (HepG2 cells) was 100 µg/mL, the MIC (Escherichia coli) was greater than 100 µg/mL and the “MIC against Escherichia coli” value (Escherichia coli) was greater than 100 µg/mL. For the same compound, the “MIC against Streptococcus” value (Streptococcus) was greater than 100 µg/mL, the MIC (Streptococcus) was greater than 100 µg/mL and the “MIC against Pseudomonas aeruginosa” value (Pseudomonas aeruginosa) was greater than 100 µg/mL. For the same compound, the MIC (Pseudomonas aeruginosa) was greater than 100 µg/mL, the “MIC against Staphylococcus aureus” value (Staphylococcus aureus) was greater than 100 µg/mL and the MIC (Staphylococcus aureus) was greater than 100 µg/mL. The MIC (Candida albicans) was greater than 100 µg/mL, the “surviving Mtb (limit of detection)” value ([3]; 10 μg/mL, 7 days at 1% O2, OD580 0.01, 7H11-OADC agar) was less than 100 colony forming units and the “effect of clavulanate on killing of non-replicating Mtb” value ([3]; NR conditions, 7 days, presence or absence of clavulanate) was “clavulanate-independent; also recorded: not detected”. The “cidality against non-replicating wild-type Mtb” value ([3]; starting inoculum 0.01) was “cidal activity; also recorded: significant cidality”, the “killing of wild-type Mtb infecting macrophages” value [4] was “kills” and the “increased killing in IFNγ-activated BMDMs versus unactivated” value ([4]; +50 ng/mL IFNγ vs −IFNγ) was “approximately 0.5 log10”. The “killing of intracellular Mtb, log10 reduction of CFU” value ([4]; activated macrophages, MOI 5, two independent experiments) was roughly 1.5 log10 and the “toxicity to the macrophages” value [5] was “no toxicity”.

Work on `CC1=C(C(=O)O)N2C(=O)[C@@H](NC(=O)Cc3ccc(Cl)cc3)[C@H]2SC1` [Compound 115] yielded an MIC [1, 6] greater than 100 µg/mL, an MIC [1, 7] greater than 100 µg/mL and an MIC ([2]; Table 9, read-out: MIC R) of 100 µg/mL (≈ 273 µM). The “HepG2 LD50” value (HepG2 cells) was greater than 100 µg/mL.

Work on `CC1=C(C(=O)O)N2C(=O)[C@@H](NS(=O)(=O)Cc3ccccc3)[C@H]2SC1` [Compound 112] yielded an MIC [1, 6] greater than 100 µg/mL, an MIC [1, 7] greater than 100 µg/mL and an MIC ([2]; Table 9, read-out: MIC R) greater than 100 µg/mL. The “HepG2 LD50” value (HepG2 cells) was greater than 100 µg/mL.

For `CC1=C(C(=O)O)N2C(=O)[C@@H](NC(=O)CCc3ccc(F)cc3)[C@H]2SC1` [Compound 113], the MIC [1, 6] was greater than 100 µg/mL, the MIC [1, 7] was greater than 100 µg/mL and the MIC ([2]; Table 9, read-out: MIC R) was 100 µg/mL (≈ 274 µM). For the same compound, the “HepG2 LD50” value (HepG2 cells) was greater than 100 µg/mL.

For `CCCN[C@@H]1C(=O)N2C(C(=O)OCCC)=C(C)CS[C@H]12` [Compound 11c, (6R,7R)-propyl 3-methyl-8-oxo-7-(propylamino)-5-thia-1-azabicyclo[4.2.0]oct-2-ene-2-carboxylate], the “selectivity index (LD50/MIC-NRd6)” value [1] was 129, the MIC [1, 8] was 6.3 µg/mL (≈ 21.1 µM) and the MIC [1, 9] was 1.6 µg/mL (≈ 5.36 µM). It also gave an MIC [1, 10] of 1.6 µg/mL (≈ 5.36 µM), an MIC [1, 11] of 0.4 µg/mL (≈ 1.34 µM) and an MIC [1, 12] of 0.39 to 0.78 µg/mL (≈ 1.31 to 2.61 µM). The MIC [1, 13] was 0.78 µg/mL (≈ 2.61 µM), the MIC ([2]; pH 6.6, read-out: MIC pH 6.6, R cells) was greater than 100 µg/mL and the “HepG2 Toxicity LD50” value (HepG2 cells) was 100−>100. The HepG2 toxicity (HepG2 cells) was greater than 100 µg/mL, the MIC (Escherichia coli) was greater than 100 µg/mL and the “MIC against Escherichia coli” value (Escherichia coli) was greater than 100 µg/mL. For the same compound, the “MIC against Streptococcus” value (Streptococcus) was greater than 100 µg/mL, the MIC (Streptococcus) was greater than 100 µg/mL and the “MIC against Pseudomonas aeruginosa” value (Pseudomonas aeruginosa) was greater than 100 µg/mL. The MIC (Pseudomonas aeruginosa) was greater than 100 µg/mL, the “MIC against Staphylococcus aureus” value (Staphylococcus aureus) was greater than 100 µg/mL and the MIC (Staphylococcus aureus) was greater than 100 µg/mL.

For `CCCNC(=O)C1=C(C)CS[C@@H]2[C@H](NC(=O)CCc3ccc(OC)cc3)C(=O)N12` [Compound 117], the MIC [1, 6] was 100 µg/mL (≈ 240 µM), the MIC [1, 7] was greater than 100 µg/mL and the MIC ([2]; Table 9, read-out: MIC R) was greater than 100 µg/mL. The “HepG2 LD50” value (HepG2 cells) was greater than 100 µg/mL.

Compound `CCCCOc1ccc(CCC(=O)N[C@@H]2C(=O)N3C(C(=O)O)=C(C)CS[C@H]23)cc1` [Compound 110] has an MIC [1, 6] of 100 µg/mL (≈ 239 µM), an MIC [1, 7] greater than 100 µg/mL and an MIC ([2]; Table 9, read-out: MIC R) of 100 µg/mL (≈ 239 µM). For the same compound, the “HepG2 LD50” value (HepG2 cells) was greater than 100 µg/mL.

For `CC1=C(C(=O)O)N2C(=O)[C@@H](NC(=O)c3ccc(Cl)cc3)[C@H]2SC1` [Compound 114], the MIC [1, 6] was greater than 100 µg/mL, the MIC [1, 7] was greater than 100 µg/mL and the MIC ([2]; Table 9, read-out: MIC R) was greater than 100 µg/mL. The “HepG2 LD50” value (HepG2 cells) was greater than 100 µg/mL.

`COc1ccc(CCC(=O)N[C@@H]2C(=O)N3C(C(=O)O)=C(C)CS[C@H]23)cc1` [Compound 108] showed an MIC [1, 6] greater than 100 µg/mL, an MIC [1, 7] greater than 100 µg/mL and an MIC ([2]; Table 9, read-out: MIC R) greater than 100 µg/mL. The “HepG2 LD50” value (HepG2 cells) was greater than 100 µg/mL.

`CC1=C(C(=O)O)N2C(=O)[C@@H](NC(=O)CCc3ccc(Br)cc3)[C@H]2SC1` [Compound 111] gave an MIC [1, 6] greater than 100 µg/mL, an MIC [1, 7] greater than 100 µg/mL and an MIC ([2]; Table 9, read-out: MIC R) of 100 µg/mL (≈ 235 µM). The “HepG2 LD50” value (HepG2 cells) was greater than 100 µg/mL.

`CC1=C(C(=O)O)N2C(=O)[C@@H](NC(=O)CCc3ccccc3Cl)[C@H]2SC1` [Compound 116] showed an MIC [1, 6] greater than 100 µg/mL, an MIC [1, 7] greater than 100 µg/mL and an MIC ([2]; Table 9, read-out: MIC R) greater than 100 µg/mL. The “HepG2 LD50” value (HepG2 cells) was greater than 100 µg/mL.

From US10059722B2, “Cephalosporin derivatives and methods of use” (priority 2012, dated 2018)
